From patent US20040063790A1, “Methods for inhibition of angiogenesis” (The Scripps Research Institute, priority 1996, published 2004)
Where a SMILES comes first, the peptide text is derived from it. [ ]: non-standard residue; d: D form.

Legend:
[1] = tested on: bFGF-induced angiogenesis; experiment: CAM assay, growth factor-induced angiogenesis, topical application; assay type: in vivo, chick; conditions: 80 μg peptide topically at 0, 24 and 48 hrs; viewed at 72 hours
Protocol: J. Pathol., 79:597 (1975). CAMs were prepared from chick embryos for subsequent induction of angiogenesis and inhibition thereof as described in Examples 4 and 5, respectively. Ten day old chick embryos were obtained from McIntyre Poultry (Lakeside, Calif.) and incubated at 37° C. with 60% humidity. A small hole was made through the shell at the end of the egg directly over the air sac with the use of a small crafts drill (Dremel, Division of Emerson Electric Co. Racine Wis.). A second hole was drilled on the broad side of the egg in a region devoid of embryonic blood vessels determined previously by candling the egg. […]
Angiogenesis was induced by placing a 5 millimeter (mm)×5 mm Whatman filter disk (Whatman Filter paper No.1) saturated with Hanks Balanced Salt Solution (HBSS, GIBCO, Grand Island, N.Y.) or HBSS containing 150 nanograms/milliliter (ng/ml) recombinant basic fibroblast growth factor (bFGF) (Genzyme, Cambridge, Mass.) on the CAM of a 10-day chick embryo in a region devoid of blood vessels and the windows were latter sealed with tape. […] For assays where inhibition of angiogenesis ws evaluated with intravenous injections of antagonists, angiogenesis was first induced with 1-2 μg/ml bFGF in fibroblast growth medium. Angiogenesis was monitored by photomicroscopy after 72 hours. […]
Quantification was performed in a double blind manner by at least two independent observers. […]

[2] = tested on: tumor-induced angiogenesis; experiment: CAM assay, tumor-induced angiogenesis, intravenous application; assay type: in vivo, chick; conditions: intravenous injection
Protocol: Angiogenesis was induced in the CAM assay system by direct apposition of a tumor fragment on the CAM. Preparation of the chick embryo CAM was identical to the procedure described above. Instead of a filter paper disk, a 50 milligram (mg) to 55 mg in weight fragment of one of human melanoma tumor M21-L, human lung carcinoma tumor UCLAP-3, human pancreatic carcinoma cell line FG (Cheresh et al., Cell 58:945-953, 1989), or human laryngeal carcinoma cell line HEp3, all of which are αvβ3 negative tumors, was placed on the CAM in an area originally devoid of blood vessels.
The M21-L human melanoma cell line, UCLAP-3 human lung carcinoma cell line, FG pancreatic carcinoma cell line, or HEp3 human laryngeal carcinoma cell line, all αvβ3 negative, were used to grow the solid human tumors on the CAMs of chick embryos. A single cell suspension of 8×10^6 M21-L, UCLAP-3, and FB or 5×10^5 HEp3 cells was first applied to the CAMs in a total volume of 30 μl of sterile HBSS. The windows were sealed with tape and the embryos were incubated for 7 days to allow growth of human tumor lesions. At the end of 7 days, now a 17-day embryo, the tumors were resected from the CAMs and trimmed free of surrounding CAM tissue. […]
The effects of peptide exposure to tumor-induced vasculature in the CAM assay system was also assessed. […]

αvβ3 = molecular target: T1, αvβ3 (Homo sapiens, UniProt P05106+P06756); experiment: Ligand-receptor binding assay, immobilized αvβ3
T1 construct: selected purified integrins were separately immobilized in Titertek microtiter wells
Description: (§1) Herein described is a method of identifying antagonists in a ligand-receptor binding assay in which the receptor is immobilized to a solid support and the ligand and antagonist are soluble. Also described is a ligand-receptor binding assay in which the ligand is immobilized to a solid support and the receptor and antagonists are soluble.
(§2) Briefly, selected purified integrins were separately immobilized in Titertek microtiter wells at a coating concentration of 50 nanograms (ng) per well. The purification of the receptors used in the ligand-receptor binding assays are well known in the art and are readily obtainable with methods familiar to one of ordinary skill in the art. After incubation for 18 hours at 4° C., nonspecific binding sites on the plate were blocked with 10 milligrams/milliliter (mg/ml) of bovine serum albumin (BSA) in Tris-buffered saline. […] Radiolabeled ligands were used at concentrations of 1 nM and binding was challenged separately with unlabeled synthetic peptides.
(§3) Following a three hour incubation, free ligand was removed by washing and bound ligand was detected by gamma counting. […] The IC50 data in micromoles (IC50 μM) are expressed as the average of duplicate data points±the standard deviation as shown in Table 2.

αIIbβ3 = molecular target: T2, αIIbβ3 (Homo sapiens, UniProt P05106+P08514); experiment: Ligand-receptor binding assay, immobilized αIIbβ3; conditions: radiolabeled fibrinogen; average of duplicate data points ± standard deviation; read-out: αIIbβ3 (IC50 μM)
T2 construct: selected purified integrins were separately immobilized in Titertek microtiter wells
Description: as §1, §2, §3

[3] = tested on: retinal neovascularization; conditions: Hammes et al., Nature Med. 1996; cited from earlier work
αvβ3 integrin = αvβ3 integrin (Homo sapiens, UniProt P05106+P06756); conditions: Pfaff et al. 1994; not to the αIIbβ3 or α5β1 integrins; cited from earlier work
M21-L melanoma tumor = experiment: In vivo chimeric mouse:human assay; set-up: species or system SCID mouse; conditions: intravenous, FIG. 18
Protocol: An in vivo chimeric mouse:human model was generated by replacing a portion of skin from a SCID mouse with human neonatal foreskin (FIG. 4). After the skin graft was established, the human foreskin was inoculated with carcinoma cells. After a measurable tumor was established, either an αvβ3 antagonist or PBS was injected into the mouse tail vein. Following a 2-3 week period, the tumor was excised and analyzed by weight and histology.
The in vivo chimeric mouse:human model is prepared essentially as described in Yan, et al., J. Clin. Invest., 91:986-996 (1993). Briefly, a 2 cm^2 square area of skin was surgically removed from a SCID mouse (6-8 weeks of age) and replaced with a human foreskin. The mouse was anesthetized and the hair removed from a 5 cm^2 area on each side of the lateral abdominal region by shaving. Two circular graft beds of 2 cm^2 were prepared by removing the full thickness of skin down to the fascia. Full thickness human skin grafts of the same size derived from human neonatal foreskin were placed onto the wound beds and sutured into place. […]
In a procedure similar to that described above for monoclonal antibodies, peptide antagonists of αvβ3 were injected intravenously into the tail vein of SCID mice having measurable M21-L tumors. […] The mean volume and weight of resected tumors following treatment were determined with the results respectively shown in FIGS. 19A and 19B.

T1 sequence (P06756 31-889 limits assumed): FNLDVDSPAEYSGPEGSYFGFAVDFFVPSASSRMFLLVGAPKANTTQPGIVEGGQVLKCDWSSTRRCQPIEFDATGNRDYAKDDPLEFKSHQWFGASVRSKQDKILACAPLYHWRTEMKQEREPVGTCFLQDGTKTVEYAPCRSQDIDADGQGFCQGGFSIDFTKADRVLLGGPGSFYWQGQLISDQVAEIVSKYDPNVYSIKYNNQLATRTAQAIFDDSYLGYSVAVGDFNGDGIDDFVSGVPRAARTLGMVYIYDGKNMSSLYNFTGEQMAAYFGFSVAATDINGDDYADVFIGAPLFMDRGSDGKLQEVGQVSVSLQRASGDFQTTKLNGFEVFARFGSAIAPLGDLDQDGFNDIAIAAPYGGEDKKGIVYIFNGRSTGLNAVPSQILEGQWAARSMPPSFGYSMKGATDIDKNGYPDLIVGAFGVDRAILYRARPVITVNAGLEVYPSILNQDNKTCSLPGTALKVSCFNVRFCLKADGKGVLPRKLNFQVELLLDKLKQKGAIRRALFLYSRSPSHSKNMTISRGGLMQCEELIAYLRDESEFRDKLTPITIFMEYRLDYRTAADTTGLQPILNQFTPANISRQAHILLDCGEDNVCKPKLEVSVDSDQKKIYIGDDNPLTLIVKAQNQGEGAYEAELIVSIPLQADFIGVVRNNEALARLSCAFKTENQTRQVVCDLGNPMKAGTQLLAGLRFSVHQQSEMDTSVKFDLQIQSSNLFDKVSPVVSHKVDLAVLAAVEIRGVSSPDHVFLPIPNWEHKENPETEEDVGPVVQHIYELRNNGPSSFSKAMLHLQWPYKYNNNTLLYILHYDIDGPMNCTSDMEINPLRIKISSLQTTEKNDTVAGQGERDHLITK
T1 sequence (P06756 891-1048 partner limits assumed): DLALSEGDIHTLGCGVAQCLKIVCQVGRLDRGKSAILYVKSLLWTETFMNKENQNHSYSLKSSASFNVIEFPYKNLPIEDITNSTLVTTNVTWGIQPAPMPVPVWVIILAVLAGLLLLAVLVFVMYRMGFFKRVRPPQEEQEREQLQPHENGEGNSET
T1 sequence (P05106 27-788): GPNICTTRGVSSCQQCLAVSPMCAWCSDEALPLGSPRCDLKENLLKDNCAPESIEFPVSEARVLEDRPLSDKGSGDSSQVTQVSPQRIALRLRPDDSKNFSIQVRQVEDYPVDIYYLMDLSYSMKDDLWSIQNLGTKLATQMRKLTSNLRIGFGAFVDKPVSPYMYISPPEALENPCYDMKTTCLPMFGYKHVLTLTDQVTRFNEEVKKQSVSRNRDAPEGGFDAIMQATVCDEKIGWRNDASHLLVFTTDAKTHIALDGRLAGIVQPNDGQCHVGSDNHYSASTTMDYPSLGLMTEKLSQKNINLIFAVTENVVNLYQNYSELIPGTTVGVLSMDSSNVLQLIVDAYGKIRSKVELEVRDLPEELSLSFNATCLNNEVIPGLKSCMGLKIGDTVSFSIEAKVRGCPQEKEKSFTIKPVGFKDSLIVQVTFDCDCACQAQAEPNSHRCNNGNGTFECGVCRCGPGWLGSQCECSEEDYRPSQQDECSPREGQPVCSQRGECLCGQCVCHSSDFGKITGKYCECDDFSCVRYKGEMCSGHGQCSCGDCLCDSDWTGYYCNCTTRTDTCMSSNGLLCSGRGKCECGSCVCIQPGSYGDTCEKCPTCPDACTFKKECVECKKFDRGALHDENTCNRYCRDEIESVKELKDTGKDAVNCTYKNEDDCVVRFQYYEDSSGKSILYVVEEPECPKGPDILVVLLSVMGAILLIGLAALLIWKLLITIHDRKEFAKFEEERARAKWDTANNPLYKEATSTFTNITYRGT
Sequence of αvβ3 integrin (P06756 31-889 limits assumed): as the sequence (P06756 31-889 limits assumed) above
Sequence of αvβ3 integrin (P06756 891-1048 partner limits assumed): as the sequence (P06756 891-1048 partner limits assumed) above
Sequence of αvβ3 integrin (P05106 27-788): as the sequence (P05106 27-788) above
T2 sequence (P08514 32-887 limits assumed): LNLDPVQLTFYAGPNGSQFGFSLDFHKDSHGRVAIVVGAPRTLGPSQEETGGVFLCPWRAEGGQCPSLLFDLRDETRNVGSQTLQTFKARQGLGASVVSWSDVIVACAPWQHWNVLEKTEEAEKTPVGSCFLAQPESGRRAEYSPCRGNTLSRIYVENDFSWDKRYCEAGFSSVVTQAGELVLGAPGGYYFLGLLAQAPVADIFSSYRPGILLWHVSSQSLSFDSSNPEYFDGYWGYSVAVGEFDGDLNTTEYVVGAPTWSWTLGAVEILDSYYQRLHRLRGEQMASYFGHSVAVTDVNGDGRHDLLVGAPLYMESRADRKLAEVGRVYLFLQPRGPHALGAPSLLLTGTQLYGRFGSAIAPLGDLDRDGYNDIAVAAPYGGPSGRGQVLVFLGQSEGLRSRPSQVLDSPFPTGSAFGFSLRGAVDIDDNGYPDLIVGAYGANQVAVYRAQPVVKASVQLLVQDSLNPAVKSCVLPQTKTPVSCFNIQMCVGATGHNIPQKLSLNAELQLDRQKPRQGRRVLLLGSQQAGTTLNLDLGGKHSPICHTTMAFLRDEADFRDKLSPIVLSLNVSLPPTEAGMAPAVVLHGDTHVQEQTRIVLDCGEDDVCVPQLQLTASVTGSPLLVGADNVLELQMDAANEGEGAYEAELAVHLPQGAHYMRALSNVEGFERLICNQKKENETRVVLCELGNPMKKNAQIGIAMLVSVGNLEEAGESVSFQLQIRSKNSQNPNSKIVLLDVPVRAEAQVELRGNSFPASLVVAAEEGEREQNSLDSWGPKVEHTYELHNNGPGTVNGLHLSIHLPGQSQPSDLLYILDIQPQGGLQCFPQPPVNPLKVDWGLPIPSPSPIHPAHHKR
T2 sequence (P08514 891-1039 partner limits assumed): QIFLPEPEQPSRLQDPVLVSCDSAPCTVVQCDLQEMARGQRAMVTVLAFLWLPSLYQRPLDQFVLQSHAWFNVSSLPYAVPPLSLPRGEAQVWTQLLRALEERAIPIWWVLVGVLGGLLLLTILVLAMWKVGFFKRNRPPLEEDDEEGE
T2 sequence (P05106 27-788): as the sequence (P05106 27-788) above

CC(C)[C@@H]1NC(=O)[C@@H](Cc2ccccc2)NC(=O)[C@H](CC(=O)O)NC(=O)CNC(=O)[C@H](CCCNC(=N)N)NC1=O [Peptide 62184, cyclo (RGDfV)]
effect on bFGF-induced blood vessel formation [1]: formation of blood vessels was inhibited
inhibition of tumor-induced blood vessel formation [2]: demonstrated to inhibit angiogenesis

CC(C)[C@@H]1NC(=O)[C@H](Cc2ccccc2)NC(=O)[C@H](CC(=O)O)NC(=O)[C@@H](C)NC(=O)[C@H](CCCNC(=N)N)NC1=O [Peptide 62186, cyclo (RaDFV)] (cyclo(R[dA]DFV))
preference of inhibition of fibrinogen binding, αvβ3 versus αIIbβ3 (αvβ3; comparison of half-maximal concentrations of Table 2): either not as effective in blocking fibrinogen binding to αvβ3 or exhibited preferential inhibition of fibrinogen binding to αIIbβ3
IC50 (αvβ3; radiolabeled fibrinogen, average of duplicate data points ± standard deviation, read-out: αvβ3 (IC50 μM)): 57.5 ± 7.84 µM
IC50 (αIIbβ3): 100 ± 0.001 µM
effect on bFGF-induced blood vessel formation [1]: remained undisturbed

cyclic RGDfV
inhibition of retinal neovascularization [3]: inhibited retinal neovascularization
inhibition of fibrinogen binding to integrins (αvβ3 integrin): specifically inhibited binding of fibrinogen to the αvβ3 integrin

B1: LM609: monoclonal antibody specific for αvβ3 (anti-αvβ3) (antibody, V domains shown)
VH: EVQLEESGGGLVKPGGSLKLSCAASGFAFSSYDMSWVRQIPEKRLEWVAKVSSGGGSTYYLDTVQGRFTISRDNAKNTLYLQMSSLNSEDTAMYYCARHNYGSFAYWGQGTLVTVSA
VL: ELVMTQTPATLSVTPGDSVSLSCRASQSISNHLHWYQQKSHESPRLLIKYASQSISGIPSRFSGSGSGTDFTLSINSVETEDFGMYFCQQSNSWPHTFGGGTKLEIKRA
tumor volume (M21-L melanoma tumor): approximately 60 mm^3
